Key:
SEM cells [1] = test: AUC of viability dose-response curve (% viability x log10 dose units); higher = less sensitive; details: 48 h
Procedure, shortened: (§1)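 Over 48 h at 37°C, leukemia cells in 1536-well plates (500 or 1000 cells/well), adapted to each medium, received library compounds in DMSO at 11 threefold doses from 47 μM to 0.79 nM. CellTiter-Glo One luminescence, normalised per plate to DMSO and cell-free wells, was fitted by a four-parameter log-logistic function of log10 dose. The area under the curve was then integrated by trapezoidal rule, after scaling curves above full viability and removing those that failed quality control.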

P12-Ichikawa [2] = test: as above; details: 48 h
Procedure, shortened: as §1

NOMO1 = test: as above; details: 48 h
Procedure, shortened: as §1

SEM cells [3] = test: cell viability relative to DMSO control; higher = less cytotoxic; details: 48 h
Procedure, shortened: (§2)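 Three leukemia lines were tested: NOMO1 and SEM at 500 cells/well and P12-Ichikawa at 1000 cells/well. Each was adapted for at least four passages in each medium and seeded in 5 μl in 1536-well plates, and library compounds in DMSO were pin-dosed from 47 μM to 0.79 nM in 11 threefold steps. After 48 h at 37°C, CellTiter-Glo One luminescence was read. Viability is a percentage relative to DMSO wells on each plate, with cell-free wells as background.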

P12-Ichikawa [4] = test: as above; details: HPLM + 10% dialyzed FBS, 48 h
Procedure, shortened: as §2

CCOC(=O)N1CCN(/[N+]([O-])=N/Oc2cc(O/N=[N+](\[O-])N3CCN(C(=O)OCC)CC3)c([N+](=O)[O-])cc2[N+](=O)[O-])CC1
Details | AUC of viability dose-response curve | cell viability [%]
NOMO1, HPLM + 10% dialyzed FBS | 476 | –
NOMO1, RPMI 5 mM glucose + 10% FBS | 460 | –
NOMO1, RPMI 5 mM glucose + 10% dialyzed FBS | 463 | –
P12-Ichikawa [2], HPLM + 10% dialyzed FBS | 460 | –
P12-Ichikawa [2], RPMI 5 mM glucose + 10% FBS | 476 | –
P12-Ichikawa [2], RPMI 5 mM glucose + 10% dialyzed FBS | 450 | –
P12-Ichikawa [4], 0.000781 µM | – | 122
P12-Ichikawa [4], 0.00234 µM | – | 123
P12-Ichikawa [4], 0.00702 µM | – | 125
P12-Ichikawa [4], 0.0211 µM | – | 123
P12-Ichikawa [4], 0.0632 µM | – | 131
P12-Ichikawa [4], 0.19 µM | – | 140
P12-Ichikawa [4], 0.569 µM | – | 131
P12-Ichikawa [4], 1.71 µM | – | 140
P12-Ichikawa [4], 5.12 µM | – | 136
P12-Ichikawa [4], 15.4 µM | – | 134
P12-Ichikawa [4], 46.1 µM | – | 135
SEM cells [1], HPLM + 10% dialyzed FBS | 449 | –
SEM cells [1], RPMI 5 mM glucose + 10% FBS | 464 | –
SEM cells [1], RPMI 5 mM glucose + 10% dialyzed FBS | 474 | –

cell viability [%], SEM cells [3]
Details | HPLM + 10% dialyzed FBS | RPMI 5 mM glucose + 10% FBS | RPMI 5 mM glucose + 10% dialyzed FBS
0.000781 µM | 90.7 | 129 | 117
0.00234 µM | 86.6 | 110 | 113
0.00702 µM | 93 | 118 | 130
0.0211 µM | 98.6 | 137 | 145
0.0632 µM | 117 | 142 | 166
0.19 µM | 115 | 138 | 138
0.569 µM | 122 | 136 | 134
1.71 µM | 74.4 | 101 | 108
5.12 µM | 119 | 142 | 113
15.4 µM | 117 | 145 | 142
46.1 µM | 116 | 128 | 122

CN1CC[C@H]([C@@H](O)C1)C2=C(O)C=C(O)C3=C2O\C(=C/C3=O)C4=CC=CC=C4Cl
AUC of viability dose-response curve
Details | NOMO1 | P12-Ichikawa [2] | SEM cells [1]
HPLM + 10% dialyzed FBS | 265 | 306 | 281
RPMI 5 mM glucose + 10% FBS | 288 | 301 | 276
RPMI 5 mM glucose + 10% dialyzed FBS | 285 | 300 | 282

SEM cells [3], HPLM + 10% dialyzed FBS
Details | cell viability [%]
0.000781 µM | 104
0.00234 µM | 121
0.00702 µM | 134
0.0211 µM | 132
0.0632 µM | 128
0.19 µM | 131
0.569 µM | 23
1.71 µM | 10.1
5.12 µM | 6.69
15.4 µM | 5.22
46.1 µM | 6.07

COc1cc(C)c(/C=C/C(C)=C/C=C/C(C)=C/C(=O)O)c(C)c1C
AUC of viability dose-response curve
Details | NOMO1 | P12-Ichikawa [2] | SEM cells [1]
HPLM + 10% dialyzed FBS | 442 | 458 | 450
RPMI 5 mM glucose + 10% FBS | 441 | 441 | 426
RPMI 5 mM glucose + 10% dialyzed FBS | 420 | 455 | 450

CN1CCc2c(n(Cc3ccc(C(=O)NO)cc3)c3ccccc23)C1
AUC of viability dose-response curve
Details | NOMO1 | P12-Ichikawa [2] | SEM cells [1]
HPLM + 10% dialyzed FBS | 452 | 448 | 443
RPMI 5 mM glucose + 10% FBS | 440 | 453 | 442
RPMI 5 mM glucose + 10% dialyzed FBS | 449 | 451 | 452

Cc1cc(NC(=O)Nc2ccc(N(C)C)cc2)c2cc(F)cc(F)c2n1
AUC of viability dose-response curve
Details | NOMO1 | P12-Ichikawa [2] | SEM cells [1]
HPLM + 10% dialyzed FBS | 457 | 475 | 465
RPMI 5 mM glucose + 10% FBS | 466 | 461 | 468
RPMI 5 mM glucose + 10% dialyzed FBS | 440 | 454 | 448

COc1cc2nc(N3CCN(C(=O)C4COc5ccccc5O4)CC3)nc(N)c2cc1OC (stereo unspecified)
Details | AUC of viability dose-response curve | cell viability [%]
NOMO1, HPLM + 10% dialyzed FBS | 439 | –
NOMO1, RPMI 5 mM glucose + 10% FBS | 452 | –
NOMO1, RPMI 5 mM glucose + 10% dialyzed FBS | 456 | –
P12-Ichikawa [2], HPLM + 10% dialyzed FBS | 457 | –
P12-Ichikawa [2], RPMI 5 mM glucose + 10% FBS | 461 | –
P12-Ichikawa [2], RPMI 5 mM glucose + 10% dialyzed FBS | 467 | –
P12-Ichikawa [4], 0.000781 µM | – | 122
P12-Ichikawa [4], 0.00234 µM | – | 125
P12-Ichikawa [4], 0.00702 µM | – | 137
P12-Ichikawa [4], 0.0211 µM | – | 127
P12-Ichikawa [4], 0.0632 µM | – | 129
P12-Ichikawa [4], 0.19 µM | – | 132
P12-Ichikawa [4], 0.569 µM | – | 132
P12-Ichikawa [4], 1.71 µM | – | 131
P12-Ichikawa [4], 5.12 µM | – | 115
P12-Ichikawa [4], 15.4 µM | – | 112
P12-Ichikawa [4], 46.1 µM | – | 82.3
SEM cells [1], HPLM + 10% dialyzed FBS | 469 | –
SEM cells [1], RPMI 5 mM glucose + 10% FBS | 450 | –
SEM cells [1], RPMI 5 mM glucose + 10% dialyzed FBS | 447 | –

SEM cells [3], HPLM + 10% dialyzed FBS
Details | cell viability [%]
0.000781 µM | 123
0.00234 µM | 125
0.00702 µM | 115
0.0211 µM | 126
0.0632 µM | 122
0.19 µM | 128
0.569 µM | 113
1.71 µM | 132
5.12 µM | 120
15.4 µM | 119
46.1 µM | 91.4

From the supplement of paper PMC11451515
